Activity calls are given as the source filed them. The rule behind the calls is not given here.
What was measured:
[1] = test system: J774; assay: Cytotoxicity against mouse J774 cells expressing RANKL signaling by Alamar blue assay; format: functional, cell-based
[2] = Cytotoxicity against mouse osteoblast cells by alamar blue assay; format: cell-based
[3] = Cytotoxicity against mouse osteoclast cells expressing RANKL signaling by Alamar blue assay; format: functional, cell-based
[4] = Inhibition of NFkappa signaling in mouse macrophages assessed as reduction in TNF-alpha-induced IkapppaB phosphorylation at 50 uM pretreated for 1 hr before TNFalpha challenge by Western blotting
[5] = target: T1, Tumor necrosis factor ligand superfamily member 11 (Mus musculus) (UniProt O35235); assay: Inhibition of NFkappa signaling in mouse macrophages assessed as reduction in RANKL-induced IkapppaB phosphorylation at 50 uM pretreated for 1 hr before RANKL challenge by Western blotting
T1 sequence (whole entry): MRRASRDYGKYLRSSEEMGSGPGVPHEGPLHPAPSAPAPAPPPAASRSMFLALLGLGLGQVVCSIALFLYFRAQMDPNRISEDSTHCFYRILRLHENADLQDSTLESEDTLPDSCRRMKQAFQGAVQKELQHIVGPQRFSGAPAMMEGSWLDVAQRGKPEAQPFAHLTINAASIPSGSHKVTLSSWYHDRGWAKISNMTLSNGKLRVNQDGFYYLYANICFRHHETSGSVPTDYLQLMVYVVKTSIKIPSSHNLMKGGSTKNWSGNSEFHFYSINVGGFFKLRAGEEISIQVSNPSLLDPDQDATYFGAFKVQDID

[6] = test system: Mus musculus; assay: Effect on ovariectomy-induced bone loss in mouse assessed as reduction in trabecular bone mineral density at 20 mg/kg/day, po (reference value: bone mineral density loss = 34%); format: functional, Trabecula; set-up: scale not given: the % may be the effect or the level left
[7] = test system: Mus musculus; assay: Anti-resorptive activity against ovariectomy-induced bone loss in mouse assessed as increase in trabecular bone mineral density at 20 mg/kg/day, po relative to untreated control; format: functional, Trabecula
[8] = Inhibition of NFkappa signaling in mouse macrophages assessed as reduction in TNF-alpha-induced IkapppaB phosphorylation at 10 uM pretreated for 1 hr before TNFalpha challenge by Western blotting
[9] = test system: Mus musculus; assay: Antiarthritic activity in mouse assessed as inhibition of collagen-induced arthritis at 10 mg/kg/day, po administered 15 days post collagen challenge; format: functional, organism-based
[10] = target: T1, Tumor necrosis factor ligand superfamily member 11 (Mus musculus); assay: Inhibition of NFkappa signaling in mouse macrophages assessed as reduction in RANKL-induced IkapppaB phosphorylation at 10 uM pretreated for 1 hr before RANKL challenge by Western blotting
[11] = test system: Mus musculus; assay: Antiarthritic activity in mouse assessed as inhibition of collagen-induced arthritis at 10 mg/kg/day, ip administered 15 days post collagen challenge; format: functional, organism-based

SMILES | IC50 [1] | further results
Cc1cc(F)ccc1-c1ccc(C(=O)CCCCCO)cc1 | 20 µM | –
OCCCCCC(O)c1ccc(-c2ccccc2)cc1 (stereo not given) | 22 µM | IC50 [2]: > 100 µM; IC50 [3]: 8 µM
Cc1cccc(-c2ccc(C(O)CCCCCO)cc2)c1 (stereo not given) | > 100 µM | –
Cc1cc(F)ccc1-c1ccc(C(O)CCCCCO)cc1 (stereo not given) | 20 µM | –
CSc1ccc(-c2ccc(C(O)CCCCCO)cc2)cc1 (stereo not given) | 24 µM | –
OCCCCCC(O)c1ccc(-c2ccc(Br)cc2)cc1 (stereo not given) | 20 µM | –
OCCCCCC(O)c1ccc(-c2ccc(F)cc2)cc1Cl (stereo not given) | 8 µM | –
O=C(CCCCCO)c1ccc(-c2ccc(F)cc2Cl)cc1 | 15 µM | –
Cc1cc(C(O)CCCCCO)ccc1-c1ccc(F)cc1F (stereo not given) | 8 µM | IC50 [2]: > 100 µM; IC50 [3]: 1.3 µM
O=C(CCCCCO)c1ccc(-c2ccc(F)c(F)c2)cc1 | 20 µM | –
OCCCCCC(O)c1ccc(-c2ccc(OC(F)(F)F)cc2)cc1 (stereo not given) | 14 µM | –
OCCCCCC(O)c1ccc(-c2ccc(Cl)cc2Cl)cc1 (stereo not given) | 8 µM | –
COc1cc(F)ccc1-c1ccc(C(O)CCCCCO)cc1 (stereo not given) | 70 µM | –
Cc1cccc(-c2ccc(C(=O)CCCCCO)cc2)c1 | 100 µM | inhibition [4]: inactive; inhibition [5]: inactive
OCCCCCC(O)c1ccc(-c2ccc(Cl)cc2)cc1 (stereo not given) | 17 µM | –
CCOc1ccc(-c2ccc(C(O)CCCCCO)cc2)cc1 (stereo not given) | 14 µM | –
Cc1ccc(-c2ccc(C(O)CCCCCO)cc2)cc1 (stereo not given) | 22 µM | –
OCCCCCC(O)c1ccc(-c2ccc(F)cc2)cc1 (stereo not given) | 18 µM | –
O=C(CCCCCO)c1ccc(-c2ccccc2)cc1 | 22 µM | IC50 [2]: > 100 µM; IC50 [3]: 9 µM; Activity [6]: 21%
Cc1ccccc1-c1ccc(C(O)CCCCCO)cc1 (stereo not given) | 24 µM | –

SMILES | IC50 [1] | further results
OCCCCCC(O)c1ccc(-c2cccc(Cl)c2)cc1 (stereo not given) | > 100 µM | –
O=C(CCCCCO)c1ccc(-c2ccc(F)cc2F)cc1Cl | 7 µM | IC50 [2]: > 100 µM; IC50 [3]: 3 µM; Activity [7]: -3%
OCCCCCC(O)c1ccc(-c2ccc(F)cc2F)cc1 (stereo not given) | 8 µM | –
Cc1cc(-c2ccc(F)cc2F)ccc1C(=O)CCCCCO | 4 µM | –
OCCCCCCc1ccc(-c2ccccc2)cc1 | – | inhibition [4]: inactive; inhibition [8]: inactive; inhibition [5]: inactive
COc1ccc(-c2ccc(C(=O)CCCCCO)cc2)cc1OC | 60 µM | IC50 [3]: 14 µM
OCCCCCC(O)c1ccc(-c2ccc(C(F)(F)F)cc2)cc1 (stereo not given) | 13 µM | –
OCCCCCC(O)c1ccc(-c2ccccc2)c(F)c1 (stereo not given) | 17 µM | –
CN(C)c1ccc(-c2ccc(C(O)CCCCCO)cc2)cc1 (stereo not given) | 28 µM | –
OCCCCCC(O)c1ccc(-c2ccc(F)cc2)cc1F (stereo not given) | 14 µM | –
Cc1cc(C(=O)CCCCCO)ccc1-c1ccc(F)cc1F | 8 µM | inhibition [8]: Active; inhibition [9]: Active; IC50 [3]: 1.5 µM; inhibition [10]: Active
COc1ccc(-c2ccc(C(=O)CCCCCO)cc2)c(OC)c1 | 50 µM | IC50 [3]: 13 µM
O=C(CCCCCO)c1ccc(-c2ccc(C(F)(F)F)cc2C(F)(F)F)cc1 | 23 µM | –
OCCCCCC(O)c1ccc(-c2ccccc2F)cc1 (stereo not given) | 22 µM | –
O=C(CCCCCO)c1ccc(-c2ccc(Cl)cc2Cl)cc1 | 8 µM | IC50 [2]: > 100 µM; inhibition [8]: Active; inhibition [11]: Active; inhibition [9]: Active; IC50 [3]: 0.8 µM; inhibition [10]: Active; Activity [6]: -6%; Activity [7]: 6%
OCCCCCC(O)c1ccc(-c2ccc(O)cc2)cc1 (stereo not given) | 15 µM | –
Cc1cc(S(=O)(=O)NCCCCO)ccc1-c1ccc(F)cc1F | – | inhibition [9]: Active
OCCCCCC(O)c1ccc(-c2ccccc2O)cc1 (stereo not given) | 40 µM | –
O=C(CCCCCO)c1ccc(-c2ccc(F)cc2F)cc1 | 6 µM | IC50 [2]: > 100 µM; IC50 [3]: 2 µM; Activity [6]: 10%

— ChEMBL document CHEMBL1221331, “Discovery of biphenylketones as dual modulators of inflammation and bone loss” (Bioorg Med Chem Lett, 2010)
